Test results from PubChem BioAssay (NCI).
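48-hour exposure; five concentrations; linearly interpolated endpoints. GI50: concentration for 50% inhibition of growth. TGI denotes the concentration required for complete inhibition of growth.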

Tests used:
Assay in all cases: DTP human tumour cell line panel, 48 h
SK-OV-3 ovarian = test system: SK-OV-3 ovarian
SN12C renal = test system: SN12C renal
HOP-62 NSCLC = test system: HOP-62 NSCLC
DU-145 prostate = test system: DU-145 prostate
OVCAR-8 ovarian = test system: OVCAR-8 ovarian
HOP-92 NSCLC = test system: HOP-92 NSCLC
ACHN renal = test system: ACHN renal
A549 NSCLC = test system: A549 NSCLC
T-47D breast = test system: T-47D breast
SK-MEL-5 melanoma = test system: SK-MEL-5 melanoma
HT29 colon = test system: HT29 colon
NCI-H23 lung = test system: NCI-H23 lung
SNB-19 CNS = test system: SNB-19 CNS
CAKI-1 renal = test system: CAKI-1 renal
OVCAR-5 ovarian = test system: OVCAR-5 ovarian
A498 renal = test system: A498 renal
OVCAR-4 ovarian = test system: OVCAR-4 ovarian
SK-MEL-28 melanoma = test system: SK-MEL-28 melanoma
MOLT-4 leukemia = test system: MOLT-4 leukemia
LOX IMVI melanoma = test system: LOX IMVI melanoma
SF-295 CNS = test system: SF-295 CNS
HS 578T breast = test system: HS 578T breast
UACC-62 melanoma = test system: UACC-62 melanoma
NCI-H460 lung = test system: NCI-H460 lung
786-0 renal = test system: 786-0 renal
COLO 205 colon = test system: COLO 205 colon
SF-268 CNS = test system: SF-268 CNS
SR leukemia = test system: SR leukemia
SW-620 colon = test system: SW-620 colon
HL-60(TB) leukemia = test system: HL-60(TB) leukemia
BT-549 breast = test system: BT-549 breast
RPMI-8226 leukemia = test system: RPMI-8226 leukemia
PC-3 prostate = test system: PC-3 prostate
RXF 393 renal = test system: RXF 393 renal
MDA-MB-435 = test system: MDA-MB-435
UACC-257 melanoma = test system: UACC-257 melanoma
SF-539 CNS = test system: SF-539 CNS
HCT-15 colon = test system: HCT-15 colon
SK-MEL-2 melanoma = test system: SK-MEL-2 melanoma
HCT-116 colon = test system: HCT-116 colon
OVCAR-3 ovarian = test system: OVCAR-3 ovarian
TK-10 renal = test system: TK-10 renal
KM12 colon = test system: KM12 colon
U251 CNS = test system: U251 CNS
NCI-H226 lung = test system: NCI-H226 lung
M14 melanoma = test system: M14 melanoma
NCI-H522 lung = test system: NCI-H522 lung
EKVX NSCLC = test system: EKVX NSCLC
K-562 leukemia = test system: K-562 leukemia
MCF7 breast = test system: MCF7 breast
IGROV1 ovarian = test system: IGROV1 ovarian
UO-31 renal = test system: UO-31 renal
NCI/ADR-RES ovarian = test system: NCI/ADR-RES ovarian
SNB-75 CNS = test system: SNB-75 CNS

With `COc1ccc2c(c1OC)CO[C@@H]2[C@H]1c2c(c(Br)c3c(c2OC)OCO3)CCN1C` the GI50 (SK-OV-3 ovarian) was 61.2 µM, the TGI (SK-OV-3 ovarian) was greater than 100 µM and the GI50 (SN12C renal) was 3.98 µM. The TGI (SN12C renal) was 16.8 µM, the GI50 (HOP-62 NSCLC) was 5.88 µM and the TGI (HOP-62 NSCLC) was 32.7 µM. The GI50 (DU-145 prostate) was 6.96 µM, the TGI (DU-145 prostate) was greater than 100 µM and the GI50 (OVCAR-8 ovarian) was 7.3 µM. For the same molecule, the TGI (OVCAR-8 ovarian) was greater than 100 µM, the GI50 (HOP-92 NSCLC) was 6.74 µM and the TGI (HOP-92 NSCLC) was 57.6 µM. For the same molecule, the GI50 (ACHN renal) was 6.63 µM, the TGI (ACHN renal) was greater than 100 µM and the GI50 (A549 NSCLC) was 7.53 µM. For the same molecule, the TGI (A549 NSCLC) was greater than 100 µM, the GI50 (T-47D breast) was 66.8 µM and the TGI (T-47D breast) was greater than 100 µM. For the same molecule, the GI50 (SK-MEL-5 melanoma) was 2.42 µM, the TGI (SK-MEL-5 melanoma) was 11.8 µM and the GI50 (HT29 colon) was 30.7 µM. The TGI (HT29 colon) was greater than 100 µM, the GI50 (NCI-H23 lung) was 4.1 µM and the TGI (NCI-H23 lung) was 22 µM. The GI50 (SNB-19 CNS) was 39.2 µM, the TGI (SNB-19 CNS) was greater than 100 µM and the GI50 (CAKI-1 renal) was 4.17 µM. The TGI (CAKI-1 renal) was 22.1 µM, the GI50 (OVCAR-5 ovarian) was 18.6 µM and the TGI (OVCAR-5 ovarian) was greater than 100 µM. The GI50 (A498 renal) was 2.27 µM, the TGI (A498 renal) was 4.43 µM and the GI50 (OVCAR-4 ovarian) was greater than 100 µM. It also gave a TGI (OVCAR-4 ovarian) greater than 100 µM, a GI50 (SK-MEL-28 melanoma) of 36.6 µM and a TGI (SK-MEL-28 melanoma) greater than 100 µM. It also gave a GI50 (MOLT-4 leukemia) of 3.55 µM, a TGI (MOLT-4 leukemia) greater than 100 µM and a GI50 (LOX IMVI melanoma) of 2.67 µM. For the same molecule, the TGI (LOX IMVI melanoma) was 12.2 µM, the GI50 (SF-295 CNS) was 2.84 µM and the TGI (SF-295 CNS) was 7.65 µM. The GI50 (HS 578T breast) was 3.08 µM, the TGI (HS 578T breast) was 12.7 µM and the GI50 (UACC-62 melanoma) was 2.07 µM. For the same molecule, the TGI (UACC-62 melanoma) was 9.2 µM, the GI50 (NCI-H460 lung) was 3.03 µM and the TGI (NCI-H460 lung) was 14 µM. It also gave a GI50 (786-0 renal) of 4.66 µM, a TGI (786-0 renal) of 19.3 µM and a GI50 (COLO 205 colon) of 31.4 µM. It also gave a TGI (COLO 205 colon) of 85.4 µM, a GI50 (SF-268 CNS) of 5.16 µM and a TGI (SF-268 CNS) of 25.5 µM. It also gave a GI50 (SR leukemia) of 1.01 µM, a TGI (SR leukemia) greater than 100 µM and a GI50 (SW-620 colon) of 3.57 µM. The TGI (SW-620 colon) was greater than 100 µM, the GI50 (HL-60(TB) leukemia) was 1.89 µM and the TGI (HL-60(TB) leukemia) was greater than 100 µM. It also gave a GI50 (BT-549 breast) of 6.8 µM, a TGI (BT-549 breast) of 35.9 µM and a GI50 (RPMI-8226 leukemia) of 4.24 µM. It also gave a TGI (RPMI-8226 leukemia) greater than 100 µM, a GI50 (PC-3 prostate) of 8.74 µM and a TGI (PC-3 prostate) greater than 100 µM. It also gave a GI50 (RXF 393 renal) of 4.9 µM, a TGI (RXF 393 renal) of 29.8 µM and a GI50 (MDA-MB-435) of 3.07 µM. For the same molecule, the TGI (MDA-MB-435) was 8.69 µM, the GI50 (UACC-257 melanoma) was 4.28 µM and the TGI (UACC-257 melanoma) was 19.9 µM. The GI50 (SF-539 CNS) was 2.83 µM, the TGI (SF-539 CNS) was 9.3 µM and the GI50 (HCT-15 colon) was 2.69 µM. It also gave a TGI (HCT-15 colon) greater than 100 µM, a GI50 (SK-MEL-2 melanoma) of 5.77 µM and a TGI (SK-MEL-2 melanoma) of 43.7 µM. It also gave a GI50 (HCT-116 colon) of 5.09 µM, a TGI (HCT-116 colon) of 22.6 µM and a GI50 (OVCAR-3 ovarian) of 3.91 µM. It also gave a TGI (OVCAR-3 ovarian) of 13.6 µM, a GI50 (TK-10 renal) of 4.42 µM and a TGI (TK-10 renal) of 21.6 µM. It also gave a GI50 (KM12 colon) of 4.26 µM, a TGI (KM12 colon) of 23.8 µM and a GI50 (U251 CNS) of 4.59 µM. The TGI (U251 CNS) was 70.6 µM, the GI50 (NCI-H226 lung) was 5.16 µM and the TGI (NCI-H226 lung) was 32.3 µM. It also gave a GI50 (M14 melanoma) of 3.47 µM, a TGI (M14 melanoma) of 9.74 µM and a GI50 (NCI-H522 lung) of 3.41 µM. The TGI (NCI-H522 lung) was 23.1 µM, the GI50 (EKVX NSCLC) was 3.95 µM and the TGI (EKVX NSCLC) was 34.8 µM. For the same molecule, the GI50 (K-562 leukemia) was 2.37 µM, the TGI (K-562 leukemia) was greater than 100 µM and the GI50 (MCF7 breast) was 3.19 µM. It also gave a TGI (MCF7 breast) of 29.3 µM, a GI50 (IGROV1 ovarian) of 8.73 µM and a TGI (IGROV1 ovarian) greater than 100 µM. The GI50 (UO-31 renal) was 10.6 µM, the TGI (UO-31 renal) was greater than 100 µM and the GI50 (NCI/ADR-RES ovarian) was 4.45 µM. It also gave a TGI (NCI/ADR-RES ovarian) greater than 100 µM, a GI50 (SNB-75 CNS) of 40.2 µM and a TGI (SNB-75 CNS) greater than 100 µM.
